In patent publication US20120122860A1, “SOLID FORMS OF SULFONAMIDES AND AMINO ACIDS” (Plexxikon, Inc., priority 2009, published 2012):

Legend:
[1] = target: B-Raf (Homo sapiens, UniProt P15056); test: Kinase activity assay, B-Raf; format: biochemical; conditions: read-out: activity toward kinase B-Raf, IC50
[2] = target: B-Raf V600E (Homo sapiens, UniProt P15056, V600E); test: Kinase activity assay, B-Raf V600E; format: biochemical; conditions: read-out: activity toward kinase B-Raf V600E, IC50
B-Raf V600E, sequence (P15056 whole entry V600E): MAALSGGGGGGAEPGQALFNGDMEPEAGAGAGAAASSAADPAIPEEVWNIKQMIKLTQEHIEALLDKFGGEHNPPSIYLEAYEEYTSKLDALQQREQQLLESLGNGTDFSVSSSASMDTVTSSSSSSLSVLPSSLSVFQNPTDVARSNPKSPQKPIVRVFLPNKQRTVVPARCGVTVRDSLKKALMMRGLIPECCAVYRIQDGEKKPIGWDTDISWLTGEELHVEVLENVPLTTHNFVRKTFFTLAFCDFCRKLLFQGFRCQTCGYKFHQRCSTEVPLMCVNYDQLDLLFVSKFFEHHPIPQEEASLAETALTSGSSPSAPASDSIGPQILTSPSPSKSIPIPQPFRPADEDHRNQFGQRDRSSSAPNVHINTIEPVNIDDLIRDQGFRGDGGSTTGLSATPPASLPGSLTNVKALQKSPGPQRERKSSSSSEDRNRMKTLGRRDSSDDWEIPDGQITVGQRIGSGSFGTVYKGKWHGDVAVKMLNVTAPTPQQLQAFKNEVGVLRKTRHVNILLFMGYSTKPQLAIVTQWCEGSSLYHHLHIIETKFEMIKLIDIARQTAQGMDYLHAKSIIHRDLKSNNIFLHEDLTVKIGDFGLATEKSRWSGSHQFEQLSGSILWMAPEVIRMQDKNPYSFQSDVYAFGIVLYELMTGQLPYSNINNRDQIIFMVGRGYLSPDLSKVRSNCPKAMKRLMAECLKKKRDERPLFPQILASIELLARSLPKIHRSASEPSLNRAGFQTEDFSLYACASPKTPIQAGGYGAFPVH

[3] = target: C-Raf (Homo sapiens, UniProt P04049); test: Kinase activity assay, C-Raf
C-Raf, sequence (P04049 whole entry): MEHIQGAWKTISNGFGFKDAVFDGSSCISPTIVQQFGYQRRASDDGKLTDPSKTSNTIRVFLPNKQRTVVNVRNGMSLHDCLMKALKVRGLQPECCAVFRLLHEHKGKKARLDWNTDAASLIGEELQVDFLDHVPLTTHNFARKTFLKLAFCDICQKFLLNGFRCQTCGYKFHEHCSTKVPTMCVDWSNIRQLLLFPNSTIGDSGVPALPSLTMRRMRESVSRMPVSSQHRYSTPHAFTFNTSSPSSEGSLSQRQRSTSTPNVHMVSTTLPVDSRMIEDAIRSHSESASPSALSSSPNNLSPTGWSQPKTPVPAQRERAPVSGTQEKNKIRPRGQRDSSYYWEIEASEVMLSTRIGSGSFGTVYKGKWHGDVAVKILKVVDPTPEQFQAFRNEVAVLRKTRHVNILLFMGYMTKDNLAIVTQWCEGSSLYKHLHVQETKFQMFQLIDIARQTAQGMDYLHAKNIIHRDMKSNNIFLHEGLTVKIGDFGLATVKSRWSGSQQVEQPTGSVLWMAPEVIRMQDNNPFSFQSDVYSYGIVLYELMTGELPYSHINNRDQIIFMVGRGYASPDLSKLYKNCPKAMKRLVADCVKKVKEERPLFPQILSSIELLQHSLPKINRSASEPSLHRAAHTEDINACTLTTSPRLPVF

[4] = target: Kdr (Homo sapiens, UniProt P35968); test: Kinase activity assay, Kdr
Kdr, sequence (P35968 20-1356): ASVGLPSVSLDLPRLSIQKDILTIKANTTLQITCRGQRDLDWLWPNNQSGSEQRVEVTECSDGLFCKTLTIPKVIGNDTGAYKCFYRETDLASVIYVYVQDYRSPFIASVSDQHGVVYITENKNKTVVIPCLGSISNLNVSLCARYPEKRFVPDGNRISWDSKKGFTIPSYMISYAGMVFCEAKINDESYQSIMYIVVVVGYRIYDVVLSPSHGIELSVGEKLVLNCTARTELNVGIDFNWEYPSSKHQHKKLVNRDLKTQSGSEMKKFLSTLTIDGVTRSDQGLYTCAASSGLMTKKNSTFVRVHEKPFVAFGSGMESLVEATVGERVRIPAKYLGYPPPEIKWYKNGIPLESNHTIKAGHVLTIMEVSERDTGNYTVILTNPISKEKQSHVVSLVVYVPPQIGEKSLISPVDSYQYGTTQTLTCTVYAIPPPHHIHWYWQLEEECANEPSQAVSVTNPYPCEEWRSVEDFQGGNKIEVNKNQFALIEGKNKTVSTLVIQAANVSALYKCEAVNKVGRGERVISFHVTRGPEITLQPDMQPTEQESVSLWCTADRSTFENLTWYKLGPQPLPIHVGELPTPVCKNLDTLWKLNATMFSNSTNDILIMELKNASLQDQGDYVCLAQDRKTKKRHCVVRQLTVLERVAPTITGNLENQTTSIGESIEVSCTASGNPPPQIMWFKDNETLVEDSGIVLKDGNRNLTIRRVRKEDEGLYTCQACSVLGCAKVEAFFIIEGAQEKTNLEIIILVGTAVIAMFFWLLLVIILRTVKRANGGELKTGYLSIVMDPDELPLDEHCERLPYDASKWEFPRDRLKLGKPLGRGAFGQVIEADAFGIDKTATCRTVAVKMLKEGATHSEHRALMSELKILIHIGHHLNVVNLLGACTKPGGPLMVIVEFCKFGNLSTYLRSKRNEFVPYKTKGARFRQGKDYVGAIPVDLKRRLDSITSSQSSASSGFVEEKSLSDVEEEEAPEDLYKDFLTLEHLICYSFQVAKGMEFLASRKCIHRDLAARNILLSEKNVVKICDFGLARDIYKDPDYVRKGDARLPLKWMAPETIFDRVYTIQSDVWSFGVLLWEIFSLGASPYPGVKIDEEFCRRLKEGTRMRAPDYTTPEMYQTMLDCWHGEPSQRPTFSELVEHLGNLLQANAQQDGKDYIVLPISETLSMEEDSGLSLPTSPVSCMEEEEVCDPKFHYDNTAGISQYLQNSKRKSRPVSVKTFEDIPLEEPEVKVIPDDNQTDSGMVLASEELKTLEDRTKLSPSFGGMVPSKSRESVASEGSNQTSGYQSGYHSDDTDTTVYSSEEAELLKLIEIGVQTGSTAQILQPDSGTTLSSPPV

B-Raf, sequence (P15056 whole entry): as the sequence (P15056 whole entry V600E) above, with E600V counted along it

Row | IC50 [1] | IC50 [2] | IC50 [3] | IC50 [4] | Structure (SMILES)
1 | ≤ 10 µM | ≤ 10 µM | ≤ 10 µM |  | N#Cc1cnc2[nH]cc(C(=O)c3cccc(NS(=O)(=O)c4ccc(F)cc4)c3F)c2c1 [P-2050, N-[3-(5-Cyano-1H-pyrrolo[2,3-b]pyridine-3-carbonyl)-2-fluoro-phenyl]-4-fluoro-benzenesulfonamide]
2 | ≤ 10 µM | ≤ 10 µM | ≤ 10 µM |  | Cn1cc(S(=O)(=O)Nc2ccc(F)c(C(=O)c3c[nH]c4ncc(C#N)cc34)c2F)cn1 [P-2084, 1-Methyl-1H-pyrazole-4-sulfonic acid [3-(5-cyano-1H-pyrrolo[2,3-b]pyridine-3-carbonyl)-2,4-difluoro-phenyl]-amide]
3 |  | ≤ 10 µM | ≤ 10 µM | ≤ 10 µM | CCn1cc(S(=O)(=O)Nc2cccc(C(=O)c3c[nH]c4ncc(C#N)cc34)c2F)cn1 [P-2089, 1-Ethyl-1H-pyrazole-4-sulfonic acid [3-(5-cyano-1H-pyrrolo[2,3-b]pyridine-3-carbonyl)-2-fluoro-phenyl]-amide]
4 | ≤ 10 µM | ≤ 10 µM | ≤ 10 µM |  | Cn1cc(S(=O)(=O)Nc2cccc(C(=O)c3c[nH]c4ncc(C#N)cc34)c2F)cn1 [P-2090, 1-Methyl-1H-pyrazole-4-sulfonic acid [3-(5-cyano-1H-pyrrolo[2,3-b]pyridine-3-carbonyl)-2-fluoro-phenyl]-amide]
5 |  | ≤ 10 µM |  |  | Cc1c(S(=O)(=O)Nc2cccc(C(=O)c3c[nH]c4ncc(C#N)cc34)c2F)cnn1C [P-2091, 1,5-Dimethyl-1H-pyrazole-4-sulfonic acid [3-(5-cyano-1H-pyrrolo[2,3-b]pyridine-3-carbonyl)-2-fluoro-phenyl]-amide]
6 |  | ≤ 10 µM | ≤ 10 µM |  | COc1ccc(S(=O)(=O)Nc2cccc(C(=O)c3c[nH]c4ncc(C#N)cc34)c2F)cn1 [P-2092, 6-Methoxy-pyridine-3-sulfonic acid [3-(5-cyano-1H-pyrrolo[2,3-b]pyridine-3-carbonyl)-2-fluoro-phenyl]-amide]
7 |  | ≤ 10 µM | ≤ 10 µM | ≤ 10 µM | CS(=O)(=O)Nc1ccc(F)c(C(=O)c2c[nH]c3ncc(C#N)cc23)c1F [P-2294, N-[3-(5-Cyano-1H-pyrrolo[2,3-b]pyridine-3-carbonyl)-2,4-difluoro-phenyl]-methanesulfonamide]
8 |  | ≤ 10 µM | ≤ 10 µM |  | CC(C)S(=O)(=O)Nc1cccc(C(=O)c2c[nH]c3ncc(C#N)cc23)c1F [P-2411, Propane-2-sulfonic acid [3-(5-cyano-1H-pyrrolo[2,3-b]pyridine-3-carbonyl)-2-fluoro-phenyl]-amide]
9 | ≤ 10 µM | ≤ 10 µM | ≤ 10 µM |  | CC(C)CS(=O)(=O)Nc1cccc(C(=O)c2c[nH]c3ncc(C#N)cc23)c1F [P-2412, 2-Methyl-propane-1-sulfonic acid [3-(5-cyano-1H-pyrrolo[2,3-b]pyridine-3-carbonyl)-2-fluoro-phenyl]-amide]
10 |  | ≤ 10 µM | ≤ 10 µM |  | N#Cc1cnc2[nH]cc(C(=O)c3cccc(NS(=O)(=O)N4CCOCC4)c3F)c2c1 [P-2421, Morpholine-4-sulfonic acid [3-(5-cyano-1H-pyrrolo[2,3-b]pyridine-3-carbonyl)-2-fluoro-phenyl]-amide]
11 |  |  |  | ≤ 10 µM | O=C(c1cccc(NS(=O)(=O)C2CCCC2)c1)c1c[nH]c2ncc(F)cc12 [P-2463, Cyclopentanesulfonic acid [3-(5-fluoro-1H-pyrrolo[2,3-b]pyridine-3-carbonyl)-phenyl]-amide]
12 |  |  |  | ≤ 10 µM | CN(C)S(=O)(=O)Nc1cccc(C(=O)c2c[nH]c3ncc(Cl)cc23)c1 [P-2470, N,N-dimethylamino-sulfonic acid [3-(5-chloro-1H-pyrrolo[2,3-b]pyridine-3-carbonyl)-phenyl]-amide]
13 |  |  | ≤ 10 µM | ≤ 10 µM | O=C(c1c(F)ccc(NS(=O)(=O)c2ccc(C(F)(F)F)cc2)c1F)c1c[nH]c2ncc(C3CC3)cc12 [P-2483, N-[3-(5-Cyclopropyl-1H-pyrrolo[2,3-b]pyridine-3-carbonyl)-2,4-difluoro-phenyl]-4-trifluoromethyl-benzenesulfonamide]

The remaining lines, values behind:

Row | Structure (SMILES) | IC50 [1] | IC50 [2] | IC50 [3] | IC50 [4]
14 | N#Cc1cnc2[nH]cc(C(=O)c3c(F)ccc(NS(=O)(=O)c4ccc(F)cc4)c3F)c2c1 [P-2028, N-[3-(5-Cyano-1H-pyrrolo[2,3-b]pyridine-3-carbonyl)-2,4-difluoro-phenyl]-4-fluoro-benzenesulfonamide] | ≤ 10 µM | ≤ 10 µM | ≤ 10 µM | 
15 | COc1ccnc2[nH]cc(C(=O)c3c(F)ccc(NS(=O)(=O)c4ncn[nH]4)c3F)c12 [P-2068, 2H-[1,2,4]Triazole-3-sulfonic acid [2,4-difluoro-3-(4-methoxy-1H-pyrrolo[2,3-b]pyridine-3-carbonyl)-phenyl]-amide] |  | ≤ 10 µM | ≤ 10 µM | 
16 | Cc1oncc1S(=O)(=O)Nc1ccc(F)c(C(=O)c2c[nH]c3ncc(C#N)cc23)c1F [P-2081, 5-Methyl-isoxazole-4-sulfonic acid [3-(5-cyano-1H-pyrrolo[2,3-b]pyridine-3-carbonyl)-2,4-difluoro-phenyl]-amide] |  | ≤ 10 µM | ≤ 10 µM | ≤ 10 µM
17 | Cc1c(S(=O)(=O)Nc2ccc(F)c(C(=O)c3c[nH]c4ncc(C#N)cc34)c2F)cnn1C [P-2082, 1,5-Dimethyl-1H-pyrazole-4-sulfonic acid [3-(5-cyano-1H-pyrrolo[2,3-b]pyridine-3-carbonyl)-2,4-difluoro-phenyl]-amide] |  | ≤ 10 µM |  | ≤ 10 µM
18 | CCn1cc(S(=O)(=O)Nc2ccc(F)c(C(=O)c3c[nH]c4ncc(C#N)cc34)c2F)cn1 [P-2083, 1-Ethyl-1H-pyrazole-4-sulfonic acid [3-(5-cyano-1H-pyrrolo[2,3-b]pyridine-3-carbonyl)-2,4-difluoro-phenyl]-amide] |  | ≤ 10 µM | ≤ 10 µM | 
19 | COc1ccc(S(=O)(=O)Nc2ccc(F)c(C(=O)c3c[nH]c4ncc(C#N)cc34)c2F)cn1 [P-2085, 6-Methoxy-pyridine-3-sulfonic acid [3-(5-cyano-1H-pyrrolo[2,3-b]pyridine-3-carbonyl)-2,4-difluoro-phenyl]-amide] | ≤ 10 µM | ≤ 10 µM | ≤ 10 µM | 
20 | N#Cc1cnc2[nH]cc(C(=O)c3c(F)ccc(NS(=O)(=O)Cc4ccccn4)c3F)c2c1 [P-2093, N-[3-(5-Cyano-1H-pyrrolo[2,3-b]pyridine-3-carbonyl)-2,4-difluoro-phenyl]-C-pyridin-2-yl-methanesulfonamide] |  | ≤ 10 µM |  | ≤ 10 µM
21 | N#Cc1cnc2[nH]cc(C(=O)c3c(F)ccc(NS(=O)(=O)Cc4ccncc4)c3F)c2c1 [P-2095, N-[3-(5-Cyano-1H-pyrrolo[2,3-b]pyridine-3-carbonyl)-2,4-difluoro-phenyl]-C-pyridin-4-yl-methanesulfonamide] |  | ≤ 10 µM |  | ≤ 10 µM
22 | N#Cc1cnc2[nH]cc(C(=O)c3cccc(NS(=O)(=O)Cc4cccnc4)c3F)c2c1 [P-2096, N-[3-(5-Cyano-1H-pyrrolo[2,3-b]pyridine-3-carbonyl)-2-fluoro-phenyl]-C-pyridin-3-yl-methanesulfonamide] |  | ≤ 10 µM |  | ≤ 10 µM
23 | N#Cc1cnc2[nH]cc(C(=O)c3cccc(NS(=O)(=O)Cc4ccncc4)c3F)c2c1 [P-2097, N-[3-(5-Cyano-1H-pyrrolo[2,3-b]pyridine-3-carbonyl)-2-fluoro-phenyl]-C-pyridin-4-yl-methanesulfonamide] |  | ≤ 10 µM |  | ≤ 10 µM
24 | N#Cc1cnc2[nH]cc(C(=O)c3cccc(NS(=O)(=O)Cc4ccccn4)c3F)c2c1 [P-2098, N-[3-(5-Cyano-1H-pyrrolo[2,3-b]pyridine-3-carbonyl)-2-fluoro-phenyl]-C-pyridin-2-yl-methanesulfonamide] |  | ≤ 10 µM |  | 
25 | CCCS(=O)(=O)Nc1ccc(F)c(C(=O)c2c[nH]c3ncc(S(C)(=O)=O)cc23)c1F [P-2173, Propane-1-sulfonic acid [2,4-difluoro-3-(5-methanesulfonyl-1H-pyrrolo[2,3-b]pyridine-3-carbonyl)-phenyl]-amide] | ≤ 10 µM | ≤ 10 µM |  | 
26 | CCCS(=O)(=O)Nc1ccc(F)c(C(=O)c2c[nH]c3ncc(-c4ccc(S(=O)(=O)N5CCCCC5)cc4)cc23)c1F [P-2186, Propane-1-sulfonic acid (2,4-difluoro-3-{5-[4-(piperidine-1-sulfonyl)-phenyl]-1H-pyrrolo[2,3-b]pyridine-3-carbonyl}-phenyl)-amide] | ≤ 10 µM | ≤ 10 µM |  | ≤ 10 µM
27 | CCCS(=O)(=O)Nc1ccc(F)c(C(=O)c2c[nH]c3ncc(-c4cnc(SC)nc4)cc23)c1F [P-2189, Propane-1-sulfonic acid {2,4-difluoro-3-[5-(2-methylsulfanyl-pyrimidin-5-yl)-1H-pyrrolo[2,3-b]pyridine-3-carbonyl]-phenyl}-amide] | ≤ 10 µM | ≤ 10 µM |  | ≤ 10 µM
28 | CCCS(=O)(=O)Nc1ccc(F)c(C(=O)c2c[nH]c3ncc(-c4cnc(N5CCOCC5)nc4)cc23)c1F [P-2197, Propane-1-sulfonic acid {2,4-difluoro-3-[5-(2-morpholin-4-yl-pyrimidin-5-yl)-1H-pyrrolo[2,3-b]pyridine-3-carbonyl]-phenyl}-amide] | ≤ 10 µM | ≤ 10 µM |  | ≤ 10 µM
29 | O=C(c1c(F)ccc(NS(=O)(=O)C2(C(=O)O)CC2)c1F)c1c[nH]c2ncc(Br)cc12 [P-2349, 1-[3-(5-Bromo-1H-pyrrolo[2,3-b]pyridine-3-carbonyl)-2,4-difluoro-phenylsulfamoyl]-cyclopropanecarboxylic acid] |  |  |  | ≤ 10 µM
30 | COc1ncc(-c2cnc3[nH]cc(C(=O)c4cccc(NS(=O)(=O)N(C)C)c4F)c3c2)cn1 [P-2424, N,N-dimethylamino-sulfonic acid {2-fluoro-3-[5-(2-methoxy-pyrimidin-5-yl)-1H-pyrrolo[2,3-b]pyridine-3-carbonyl]-phenyl}-amide] |  | ≤ 10 µM | ≤ 10 µM | ≤ 10 µM
